US5919799A, “Imidazothiazole compound” (Nikken Chemicals Co., Ltd., priority 1995, dated 1999)
Where a name gives a salt, the structure may show the parent alone.

How the values were obtained:
[1] = system: VJ-300 cells (multidrug resistant clones of KB cells); experiment: In vitro suppression of proliferation of VJ-300 cells by co-administration with vincristine; type: cell-based, Human; settings: co-administered VCR and test compound (1 μg/ml), relative to VCR alone in KB = 1
Method: (§1) As the incubation solution, an Eagle MEM medium (made by Nissui Seiyakusha) containing 10% fetal calf serum (made by Flow Laboratories Co.) and 0.292 mg/ml L-glutamine (made by Flow Laboratories Co.) was used. The action overcoming resistance to an anti-neoplastic agent and effect in enforcing the effect of an anti-neoplastic agent obtained through co-administration of the anti-neoplastic agent doxorubicin (adriamycin, ADM) and the test compounds were tested as follows:
The test cells were suspended in the incubation medium and adjusted to a cell density of about 200 cells/ml. 2 ml portions of the cell suspension were placed in petri dishes and incubated in a carbon dioxide gas incubator (5% CO2, 95% air) at 37° C. for 24 hours. Next, predetermined concentrations of aqueous ADM solutions and dimethyl sulfoxide (DMSO) solutions of predetermined concentrations of the test compounds were added into 5 to 10 μl portions, then incubation was continued for 7 days. After the end of the incubation, the samples were fixed by methanol, Giemsa staining was performed, the number of colonies in each dish was counted, and a volume reaction curve was prepared. This was used to calculate the ADM concentration at a 50% cell survival rate (LD50) and judge the action overcoming resistance to an anti-neoplastic agent and effect in enhancing the effect of an anti-neoplastic agent.
The LD50 concentration of ADM in the ADM control group for KB cells was shown as the resistance degree "1" and the other LD50 concentrations were indexed against this to calculate the resistance degrees. In Table 2, ADM alone (control) is the group administered ADM alone, ADM+Compound 1 is the group co-administered ADM and Compound 1 (1 μg /ml) and so on down to ADM+Compound 19 which is the group co-administered ADM and Compound 19 (1 μg /ml).
A volume reaction curve was prepared and the resistance calculated. In the Tables, VCR alone (control) is the group administered VCR alone, VCR+Compound 1 is the group co-administered VCR and Compound 1(1 μg /ml) and so on down to VCR+Compound 16 which is the group co-administered VCR and Compound 16 (1 μg/ml).

[2] = system: VCR resistant murine leukemic (P388/VCR) cells; experiment: In vivo effect of overcoming resistance to vincristine in VCR resistant murine leukemia cell bearing mice (intraperitoneal); design: species or system CDF1 male mice; settings: VCR (100 μg/kg) + compound (100 mg/kg), i.p., 5 days; for Effect overcoming resistance (T/V %): vs VCR alone; for Rate of prolongation of life (T/C %): vs non-administered control
Method: (a) 10^6 VCR resistant murine leukemic (P388/VCR) cells were transplanted intraperitoneally to groups of six CDF1 male mice. The compound of the present invention (10 or 100 mg/kg) was suspended in 0.5% sodium carboxymethyl cellulose containing 0.1% Tween 80, while the VCR (100 μg/kg) was dissolved in physiological saline. These were each administered intraperitoneally over 5 days and the mice observed to find the days of survival and the rate of prolongation of life with respect to the control (T/C). The effect in overcoming resistance to an anti-neoplastic agent (T/V) was found from the following formula:
Effect in overcoming resistance to anti-neoplastic agent (T/V%)=(Rate of prolongation of life when co-administering VCR and compound of present invention (T/C%))/(Rate of prolongation of life by VCR alone
In Table 5, "Control" is the non-administered group, VCR alone is the group administered just VCR (100 μg /kg), VCR+Compound 1 is the group co-administered VCR (100 μg /kg) and Compound 1 (100 mg/kg) and so on to VCR+Compound 14* which is the group co-administered VCR (100 μg /kg) and Compound 14 (10 mg/kg).

[3] = system: VCR resistant murine leukemia (P388/VCR) cells; experiment: In vivo effect of overcoming resistance with etoposide (VP-16) in P388/VCR bearing mice (intravenous); design: species or system CDF1 male mice; settings: VP-16 (3 mg/kg) + compound (40 mg/kg), i.v., five days; for Effect overcoming resistance (T/V %): vs VP-16 alone; for Rate of prolongation of life (T/C %): vs non-administered control
Method: (b) Separately, groups of six CDF1 male mice were intravenously given transplants of 1.2×10^5 VCR resistant murine leukemia (P388/VCR) cells. The compound of the present invention (20 or 40 mg/kg) was dissolved in 0.01N hydrochloric acid. Etoposide (VP-16, 3 mg/kg) was dissolved in a physiological saline solution. These were administered intravenously for five days and the days of survival were found. In the same way as (a), the rate of prolongation of life with respect to the control (T/C) and the effect in overcoming the resistance to an anti-neoplastic agent (T/V) were found. In Table 6, the control is the non-administered group, VP-16 alone is the group administered VP-16 (3 mg/kg) and VP-16+Compound 5 is the group co-administered VP-16 (3 mg/kg) and Compound 5 (40 mg/kg) and so on to VP-16+Compound 16 which is the group co-administered VP-16 (3 mg/kg) and Compound 16 (40 mg/kg).

[4] = Acute toxicity test (a), intraperitoneal, three animals per group; settings: mouse, in vivo, ip, ICR male mice, up to 7 days after administration
Text: (§2) (a) Animals used: ICR male mice (Charles River Japan), 7 to 8 weeks old, were used three to a group.
(§3) Test method: The compound of the present invention was suspended in 0.5% sodium carboxymethyl cellulose(CMC-Na) containing 0.1% Tween 80. […] The survival of the animals was examined up to 7 days after administration, then the Van Der Wearder area method was used to calculate the LD50 value.

[5] = system: VJ-300 cells (multidrug resistant clones of KB cells); experiment: In vitro suppression of proliferation (colony formation) of VJ-300 cells by co-administration with doxorubicin; type: cell-based, Human; settings: ADM alone (Control); relative to KB = 1
Method: In Vitro Test of Effect of Suppression of Proliferation of Cancer Cells by Co-Administration with Doxorubicin
as §1, with “Human epipharynx cancer derived cancer KB cells (sensitive cells) and their multidrug resistant clones VJ-300 cells (resistant cells) were used as test cells. As” for “As”
The test cells were suspended in the incubation medium and adjusted to a cell density of about 200 cells/ml. 2 ml portions of the cell suspension were placed in petri dishes and incubated in a carbon dioxide gas incubator (5% CO2, 95% air) at 37° C. for 24 hours. […] After the end of the incubation, the samples were fixed by methanol, Giemsa staining was performed, the number of colonies in each dish was counted, and a volume reaction curve was prepared. […]

[6] = Acute toxicity test (b), intraperitoneal, five mice per group; settings: mouse, in vivo, ip, groups of five, 1000 mg to 250 mg/kg
Method: as §2, §3
(b) Groups of five mice were tested in the same way as in (a) except that the drug was administered intraperitoneally from 1000 mg by a rate of 1/√2 until 250 mg/kg.

| SMILES | Resistance with VCR, VJ-300 (resistance degree) ([1]; Table 3) | Days of survival [2] | Effect overcoming resistance (T/V %) [2] | Rate of prolongation of life (T/C %) [2] | Days of survival [3] | Effect overcoming resistance (T/V %) [3] | Rate of prolongation of life (T/C %) [3] | LD50 at 168 h [4] | Resistance at ADM, VJ-300 (resistance degree) [5] | Resistance with VCR, VJ-300 (resistance degree) ([1]; Table 4) | LD50 at 168 h [6] |
| --- | --- | --- | --- | --- | --- | --- | --- | --- | --- | --- | --- |
| CN1CCCC(C(=O)NN=Cc2c(-c3ccccc3)nc3sc4c(n23)CCCC4)C1 (stereo not drawn) [Compound 5, 5,6,7,8-tetrahydro-2-phenyl-3-(N-methyl-3-piperidylcarbonylaminoiminomethyl)imidazo[2,1-b]benzothiazole] | 1.2 | 14.38 days | 130% | 138% | 14.0 days | 125% | 136% | 604 mg/kg |  |  |  |
| COc1cccc2c1C(=O)c1c(O)c3c(c(O)c1C2=O)C[C@@](O)(C(=O)CO)C[C@@H]3O[C@H]1C[C@H](N)[C@H](O)[C@H](C)O1 [ADM, doxorubicin] |  |  |  |  |  |  |  |  | 46.7 |  |  |
| O=C(NN=Cc1c(-c2ccccc2)nc2sc3c(n12)CCCC3)c1cccnc1 [Compound 1, 5,6,7,8-tetrahydro-2-phenyl-3-(3-pyridylcarbonylaminoiminomethyl)imidazo[2,1-b]benzothiazole] | 3.3 | 12.33 days | 111% | 118% |  |  |  | ≥ 2000 mg/kg |  |  |  |
| CN1CCCC(C(=O)NN=Cc2c(-c3ccccc3)nc3sc4ccccc4n23)C1 (stereo not drawn) [Compound 15, 2-phenyl-3-[N-methyl-3-piperidylcarbonylaminoiminomethyl]imidazo[2,1-b]benzothiazole hydrochloride] |  |  |  |  | 13.0 days | 116% | 126% |  |  | 3.1 | ≥ 1000 mg/kg |
| CCCN1CCCC(C(=O)NN=Cc2c(-c3ccccc3)nc3sc4c(n23)CCCC4)C1 (stereo not drawn) [Compound 12, 5,6,7,8-tetrahydro-2-phenyl-3-[N-propyl-3-piperidylcarbonylaminoiminomethyl]imidazo[2,1-b]benzothiazole hydrochloride] |  |  |  |  | 13.2 days | 118% | 128% |  |  | 1.3 | 592 mg/kg |
